# Patent US20250177564A1, “GENE THERAPY FOR THE TREATMENT OF HT1” (LogicBio Therapeutics, Inc., priority 2021, published 2025)
# Tests used:
# HT1 patients = conditions: cited from earlier work
# Fah−/− mice [1] = test: Compatibility between NTBC (standard of care) and GENERIDE, NTBC titration; assay type: in vivo, mouse; conditions: high doses of NTBC
# Experimental: Four-week-old Fah−/− animals were treated with rAAV.DJ-GR-mFAH at dosages of 1e14 vg/kg via retro-orbital sinus under anesthesia. All mice were kept on 8 mg/L of NTBC prior to the initiation of the study until 4 weeks post dosing, and then NTBC were either maintained at 8 mg/L (control) or titrated down to 3 mg/L, 0.8 mg/L, or 0.3 mg/L for 8 weeks. During the study, animals were sampled periodically by submandibular bleed and plasma was collected and stored at −80° C. until further analysis. At sacrifices, blood was collected for plasma via cardiac puncture. For liver dissection, one lobe of liver was fixed by 10% formalin, and the remaining was snap-frozen and stored at −80° C. Next day, formalin-fixed liver was transferred to 70% ethanol for paraffin embedding.
# Viral vectors comprising an AAV-DJ viral capsid, mouse FAH (mFAH) transgene, P2A sequence, and flanking 5′ homology arm 1000 nucleotides (nt) in length and a 3′ homology arm 1600 nt in length homology arms were constructed. Homology arms were designed for complementarity to a mouse genomic albumin target integration site. Viral vectors herein described were administered at a dosage of 1e14 vg/kg to […] groups (Groups 1, 2, 3, 4) of Fah−/− mice via intravenous injection at 4 weeks of age. […] Mice were assessed for circulating biomarkers (e.g., levels of ALB-2A) for up to 6 weeks post-NTBC titration (FIG. 4B).
# Fah−/− mice [2] = test: Disease progression and resolution with and without NTBC (NTBC cycling); assay type: in vivo, mouse
# Experimental: Fah−/− mice were kept on 8 mg/L of NTBC-drinking water prior to the initiation of the study at 7 weeks of age. Animals were then supplied with regular water (NTBC off) for 7 days, followed by NTBC-containing water at 8 mg/L for another 7 days. The above cycling was repeated for another 14 days. During the study, animals were monitored for daily body weight. Submandibular blood and urine were sampled periodically, and serum and plasma were collected and stored at −80° C. until further analysis. At sacrifice, blood was collected for plasma via cardiac puncture. For liver dissection, one lobe of liver was fixed by 10% formalin, and the remaining was snap-frozen and stored at −80° C. The following day, the formalin-fixed liver was transferred to 70% ethanol for paraffin embedding.
smiles,measurement,setting,value
"O=C1CCCC(=O)C1C(=O)c1ccc(C(F)(F)F)cc1[N+](=O)[O-] [NTBC, 2-(2-nitro-4-trifluoromethylbenzoyl)-1,3cyclohexanedione]","risk of developing HCC, NTBC started after the neonatal period compared to patients treated as neonates",HT1 patients,2-12 fold
same,effect on selective expansion of GENERIDE edited cells (hepatocytes),Fah−/− mice [1],prevent selective expansion
same,"time to restore levels of disease biomarkers (SUAC) and liver synthetic function (aPTT, ALT, blood glucose)",Fah−/− mice [2]; NTBC 8 mg/L drinking water,less than 7 days
same,time to abnormal levels of disease biomarkers (SUAC) and liver synthetic function upon withdrawal,Fah−/− mice [2]; NTBC withdrawal,less than 3 days
